Our source for the IC50 values is patent US5821240A, “Pyrimido[5,4]-dipyrimidines, pharmaceuticals containing them, their use and processes for the preparation thereof” (Dr. Karl Thomae GmbH, priority 1996, dated 1998).

Bounds are passed on as bounds.

The test system of test [1] is F/L-HERc cells expressing human EGF-R. Briefly: Inhibition of EGF-dependent proliferation of F/L-HERc cells. It counts as cell-based, murine cell line; human EGF-R. The settings on record: EGF 20 ng/ml, 37° C., 48 hours. The source says: (§1) In this case, an interleukin-3 (IL-3)-dependent cell line of murine origin was used and was genetically modified in such a way that it expresses functional human EGF-R. Proliferation of these cells, which are called F/L-HERc, can therefore be stimulated either by murine IL-3 or by EGF (see von Ruden, T. et al. in EMBO J. 7, 2749-2756 (1988) and Pierce, J. H. et al. in Science 239, […] (1988)).
(§2) The starting material for the F/L-HERc cells was the cell line FDC-P1 whose preparation has been described by Dexter, T. M. et al. in J. Exp. Med. 152, 1036-1047 (1980). However, it is also possible as an alternative to use other growth factor-dependent cells (see, for example, Pierce, J. H. et al. in Science 239, 628-631 (1988), Shibuya, H. et al. in Cell 70, 57-67 (1992) and Alexander, W. S. et al. in EMBO J. 10, 3683-3691 (1991)). Recombinant retroviruses as described in von Ruden, T. et al., EMBO J. 7, 2749-2756 (1988) Were used for expression of the human EGF-R cDNA (see Ullrich, A. et al. in Nature 309, 418-425 (1984)), with the difference that the retroviral vector LXSN (see Miller, A. D. et al. in BioTechniques 7, 980-990 (1989)) was employed for expression of the EGF-R cDNA, and the line GP+E86 (see Markowitz, D. et al. in J. Virol. 62, 1120-1124 (1988)) was used as packaging cell.
(§3) F/L-HERc cells were cultivated in RPMI/1640 medium (BioWhittaker), supplemented with 10% fetal calf serum (FCS, Boehringer Mannheim), 2 mM glutamine (BioWhittaker), standard antibiotics and 20 ng/ml human EGF (Promega), at 37° C. and 5% CO2. To investigate the inhibitor activity of the compounds according to the invention, 1.5×10^4 cells were cultivated in the above medium (200 μl) per well in triplicates in 96-well plates, stimulating proliferation of the cells either with EGF (20 ng/ml) or with murine IL-3. The source used for IL-3 was culture supernatants from the cell line X63/0 mIL-3 (see Karasuyama, H. et al. in Eur. J. Immunol. 18, 97-104 (1988)). The compounds according to the invention were dissolved in 100% dimethyl sulphoxide (DMSO) and added in various dilutions to the cultures, with the maximum DMSO concentration being 1%. The cultures were incubated at 37° C. for 48 hours.
(§4) To determine the inhibitory activity of the compounds according to the invention, the relative cell count was measured in O.D. units using the Cell Titre 96™ AQueous Non-Radioactive Cell Proliferation Assay (Promega). The relative cell count was calculated as a percent of the control (F/L-HERc cells without inhibitor), and the concentration of active substance which inhibits the proliferation of the cells by 50% (IC50) was inferred.

Another test deals with F/L-HERc cells. Kind of test: Inhibition of IL-3-dependent proliferation of F/L-HERc cells. The settings on record: Mus musculus, murine IL-3, 37° C., 48 hours. The class given is cell-based.
Source text: as §1, §2, §3, §4

`COC(=O)NC1CCN(c2ncc3ncnc(Nc4ccc(F)c(Cl)c4)c3n2)CC1` [1(1), 4-[(3-Chloro-4-fluorophenyl)amino]-6-[4-methoxycarbonylamino-1-piperidinyl]pyrimido[5,4-d]pyrimidine]: the IC50 in test [1] is 0.034 µM; in the test with F/L-HERc cells, above 10 µM.

Take `CC(C)(C)OC(=O)N1CCC(CNc2ncc3ncnc(Nc4ccc(F)c(Cl)c4)c3n2)CC1` [1(26), 4-[(3-Chloro-4-fluorophenyl)amino]-6-[(1-tert-butyloxycarbonyl-4-piperidinyl)methylamino]pyrimido[5,4-d]pyrimidine]: the IC50 in test [1] is 0.2 µM; in the test with F/L-HERc cells, above 20 µM.

With `CC(N)CNc1ncc2ncnc(Nc3ccc(F)c(Cl)c3)c2n1` (stereo not drawn) [1(11), 4-[(3-Chloro-4-fluorophenyl)amino]-6-[2-amino-1-propylamino]pyrimido[5,4-d]pyrimidine], the IC50 is 0.075 µM in test [1] and above 10 µM with F/L-HERc cells.

With `CN1CCN(C2CCC(Nc3ncc4ncnc(Nc5ccc(F)c(Cl)c5)c4n3)CC2)CC1` (stereo not drawn) [1(46), 4-[(3-Chloro-4-fluorophenyl)amino]-6-[4-(1-methyl-4-piperazinyl)cyclohexylamino]pyrimido[5,4-d]pyrimidine], the figures for the IC50 (in test [1]; with F/L-HERc cells) were 0.002 µM and above 1 µM, respectively.

Consider `NCCCCCNc1ncc2ncnc(Nc3ccc(F)c(Cl)c3)c2n1` [1(54), 4-[(3-Chloro-4-fluorophenyl)amino]-6-[5-aminopentylamino]pyrimido[5,4-d]pyrimidine], for which the IC50 in test [1] is 0.01 µM; in the test with F/L-HERc cells, above 1 µM.

With `CCN(CCO)c1ncc2ncnc(Nc3ccc(F)c(Cl)c3)c2n1` [1(23), 4-[(3-Chloro-4-fluorophenyl)amino]-6-[N-ethyl-N-(2-hydroxyethyl)amino]pyrimido[5,4-d]pyrimidine], the IC50 in test [1] is 0.063 µM; in the test with F/L-HERc cells it was above 1 µM.

In the case of `Fc1ccc(Nc2ncnc3cnc(NC4CCCNCC4)nc23)cc1Cl` (stereo not drawn) [1(58), 4-[(3-Chloro-4-fluorophenyl)amino]-6-[4-(azacycloheptyl)amino]pyrimido[5,4-d]pyrimidine], the results for the IC50 (in test [1]; in the test on F/L-HERc cells) were 0.004 µM and above 1 µM, respectively.

As to `CN1CCC(CNc2ncc3ncnc(Nc4ccc(F)c(Cl)c4)c3n2)CC1` [1(51), 4-[(3-Chloro-4-fluorophenyl)amino]-6-[(1-methyl-4-piperidinyl)methylamino]pyrimido[5,4-d]pyrimidine], the figures for the IC50 (in test [1]; in the test on F/L-HERc cells) were 0.009 µM and above 1 µM, respectively.

With `NCCCNc1ncc2ncnc(Nc3ccc(F)c(Cl)c3)c2n1` [1(9), 4-[(3-Chloro-4-fluorophenyl)amino]-6-[3-aminopropylamino]pyrimido[5,4-d]pyrimidine], the IC50 in test [1] is 0.018 µM; in the test with F/L-HERc cells, above 10 µM.

As to `Fc1ccc(Nc2ncnc3cnc(N4CCCCC4)nc23)cc1Cl` [1(49), 4-[(3-chloro-4-fluorohenyl)amino]-6-[1-piperidinyl]pyrimido[5,4-d]pyrimidine], the IC50 (in test [1]; in the test with F/L-HERc cells) was above 1 µM each time.

Turning to `Fc1ccc(Nc2ncnc3cnc(NC4CCCN(Cc5ccccc5)CC4)nc23)cc1Cl` (stereo not drawn) [1(42), 4-[(3-Chloro-4-fluorophenyl)amino]-6-[1-benzyl-4-(1-azacycloheptyl)amino]pyrimido[5,4-d]pyrimidine], the IC50 in test [1] is above 0.1 µM; in the test on F/L-HERc cells, above 1 µM.

Regarding `Fc1ccc(Nc2ncnc3cnc(NCC4CCNCC4)nc23)cc1Cl` [1(29), 4-[(3-Chloro-4-fluorophenyl)amino]-6-[4-piperidinylmethylamino]pyrimido[5,4-d]pyrimidine], the IC50 in test [1] was 0.013 µM; in the test with F/L-HERc cells, above 20 µM.

In the case of `O[C@H]1CC[C@H](Nc2ncc3ncnc(Nc4ccc(-c5ccccc5)cc4)c3n2)CC1` [1(63), 4-[4-Biphenylylamino]-6-[trans-4-hydroxycyclohexylamino]pyrimido[5,4-d]pyrimidine], the IC50 (in test [1]; in the test with F/L-HERc cells) was above 10 µM each time.

On to `Nc1cc(Cl)c(Nc2ncnc3cnc(N[C@H]4CC[C@H](O)CC4)nc23)cc1Cl` [1(62), 4-[(4-Amino-2,5-dichlorophenyl)amino]-6-[trans-4-hydroxycyclohexylamino]pyrimido[5,4-d]pyrimidine], for which the IC50 in test [1] was 0.004 µM; in the test with F/L-HERc cells it was above 10 µM.

Regarding `Nc1ccc(CNc2ncc3ncnc(Nc4ccc(F)c(Cl)c4)c3n2)cc1` [1(14), 4-[(3-Chloro-4-fluorophenyl)amino]-6-[4-aminobenzylamino]pyrimido[5,4-d]pyrimidine], the IC50 in test [1] was 0.028 µM; in the test with F/L-HERc cells it was above 10 µM.

For the compound `NCC1CCCC(CNc2ncc3ncnc(Nc4ccc(F)c(Cl)c4)c3n2)C1` (stereo not drawn) [1(38), 4-[(3-Chloro-4-fluorophenyl)amino]-6-[3-(aminomethyl)cyclohexylmethylamino]pyrimido[5,4-d]pyrimidine], the IC50 is 0.051 µM in test [1] and above 1 µM in the test with F/L-HERc cells.

In the case of `CN1CCC(C2CCN(c3ncc4ncnc(Nc5ccc(F)c(Cl)c5)c4n3)CC2)CC1` [1(41), 4-[(3-Chloro-4-fluorophenyl)amino]-6-[4-(1-methyl-4-piperidinyl)-1-piperidinyl]pyrimido[5,4-d]pyrimidine], the IC50 in test [1] is 0.2 µM; in the test on F/L-HERc cells, above 1 µM.

On to `NCCCCNc1ncc2ncnc(Nc3ccc(F)c(Cl)c3)c2n1` [1(10), 4-[(3-Chloro-4-fluorophenyl)amino]-6-[4-aminobutylamino]pyrimido[5,4-d]pyrimidine], for which the IC50 in test [1] was 0.017 µM; in the test on F/L-HERc cells, above 10 µM.

In the case of `O[C@H]1CC[C@H](Nc2ncc3ncnc(Nc4cccc(Oc5ccccc5)c4)c3n2)CC1` [1(64)], the IC50 was 0.15 µM in test [1] and above 10 µM in the test on F/L-HERc cells.

As to `Fc1ccc(Nc2ncnc3cnc(N4CCC(N5CCCC5)CC4)nc23)cc1Cl` [1(31), 4-[(3-Chloro-4-fluorophenyl)amino]-6-[4-(1-pyrrolidinyl)-1-piperidinyl]pyrimido[5,4-d]pyrimidine], the IC50 in test [1] came out at 0.103 µM; with F/L-HERc cells, 10 µM.

As to `O=C(N[C@H]1CC[C@H](CNc2ncc3ncnc(Nc4ccc(F)c(Cl)c4)c3n2)CC1)OCc1ccccc1` [1(60), 4-[(3-Chloro-4-fluorophenyl)amino]-6-[trans-4-(benzyloxycarbonylamino)cyclohexylmethylamino]pyrimido[5,4-d]pyrimidine], the values for the IC50 (in test [1]; in the test on F/L-HERc cells) were 0.12 µM and above 10 µM, respectively.

As to `Fc1ccc(Nc2ncnc3cnc(NCC45CCN(CC4)CC5)nc23)cc1Cl` [1(24), 4-[(3-Chloro-4-fluorophenyl)amino]-6-[4-quinuclidinylmethylamino]pyrimido[5,4-d]pyrimidine], the figures for the IC50 (in test [1]; in the test with F/L-HERc cells) were 0.009 µM and above 1 µM, respectively.

Turning to `CC(C)(C)OC(=O)N1CCCC(Nc2ncc3ncnc(Nc4ccc(F)c(Cl)c4)c3n2)CC1` (stereo not drawn) [1(57), 4-[(3-chloro-4-fluorophenyl)amino]-6-[1-tert-butyloxy-carbonyl-4-(azacycloheptyl)amino]pyrimido[5,4-d]pyrimidine], the IC50 is 0.088 µM in test [1] and above 10 µM with F/L-HERc cells.

Regarding `CC(C)(N)CNc1ncc2ncnc(Nc3ccc(F)c(Cl)c3)c2n1` [1(27), 4-[(3-Chloro-4-fluorophenyl)amino]-6-[2-amino-2-methyl-1-propylamino]pyrimido[5,4-d]pyrimidine], the IC50 in test [1] was 0.04 µM; in the test on F/L-HERc cells it was above 10 µM.

For `NC1CCCN(c2ncc3ncnc(Nc4ccc(F)c(Cl)c4)c3n2)CC1` (stereo not drawn) [1(56), 4-[(3-Chloro-4-fluorophenyl)amino]-6-[4-amino-1-azacycloheptyl]pyrimido[5,4-d]pyrimidine], the IC50 is 0.04 µM in test [1] and above 1 µM in the test with F/L-HERc cells.

For the compound `Nc1c(Br)cc(Nc2ncnc3cnc(N4CCC(N)CC4)nc23)cc1Br` [1(3), 4-[(4-Amino-3,5-dibromophenyl)amino]-6-[4-amino-1-piperidinyl]pyrimido[5,4-d]pyrimidine], the figures for the IC50 (in test [1]; in the test with F/L-HERc cells) were 0.067 µM and above 1 µM, respectively.

As to `NC[C@H]1CC[C@H](Nc2ncc3ncnc(Nc4ccc(F)c(Cl)c4)c3n2)CC1` [1(59)], the IC50 was 0.001 µM in test [1] and above 1 µM in the test with F/L-HERc cells.

What is called IC50 is the concentration that inhibits the measured activity by half. Low readings indicate greater potency, high ones weaker potency.
